# Experimental data: patent publication US20060270709A1 (priority 2005, published 2006)
# What was measured:
# [1] = test system: NMDA-induced neural toxicity in cortical neurons; assay: NMDA-induced neural toxicity in cortical neurons (LDH release); assay type: cell-based, rat (Wistar, fetal); conditions: 200 μM NMDA 24 h
# Protocol: The cortical tissues were dissociated to single cells by gentle trituration. […] The cell suspension was centrifuged at 310×g for 3 min and the resulting pellets were resuspended in the medium described above.
# [2] = test system: AMPA-mediated neurodegeneration in CA1 region of organotypic hippocampal slice cultures; assay: AMPA toxicity in organotypic hippocampal slice cultures (PI fluorescence in CA1); assay type: cell-based, Wistar rat
# Protocol: (§1) Organotypic hippocampal slice cultures were prepared using the basic method of Pringle et al, Brain Research, 755:36-46 (1997) modified as follows. Wistar rat pups (8-11 days old) were decapitated and the hippocampus rapidly dissected into ice-cold Gey's balanced salt solution supplemented with 4.5 mg/ml glucose. Transverse sections (400 μm) were cut on a McIlwain tissue chopper and placed back into ice-cold Gey's balanced salt solution. Slices were separated and plated onto Millicell CM culture inserts (4 per well) and maintained at 37° C./5% CO2 for 14 days. […] Medium was changed every 3-4 days.
# (§2) PI fluorescence was detected using a Leica DMIL inverted microscope fitted with a rhodamine filter set. Any cultures in which PI fluorescence was detected at this stage were excluded from further study. […] Neuronal damage was assessed by PI fluorescence imaging 24 hours after the initiation of the neurotoxic insult. Neurotoxicity protocols are outlined below.
# (1) AMPA: Cultures were transferred to fresh SFM (+PI) containing 30 μM S-AMPA for 3 hours under normal culture conditions. At the end of this period, cultures were returned to fresh SFM for 21 hours prior to determination of neuronal death by PI imaging. GYK152466 (30 μM) was used as a positive, neuroprotective control.
# (§3) Neuronal damage was assessed using ImageJ software running on a PC. Images were captured using a monochrome CCD camera and saved for otlline analysis. Light transmission images were captured prior to the addition of drugs, and PI fluorescence images recorded at the end of the 24-hour recovery period. The area of the CA1 region was determined from the transmission image. The area of PI fluorescence in the CA1 was measured using the threshold function on ImageJ, and neuronal damage expressed as the percentage of the CA1 in which PI fluorescence was detected above background. Morrison et al, Br. J. Pharmacol., 137:1255-1268 (2002).
# [3] = test system: duroquinone-induced injury in CA1 region of organotypic hippocampal slice cultures; assay: Free radical-mediated toxicity (duroquinone) in organotypic hippocampal slice cultures; assay type: cell-based, Wistar rat; conditions: 100 μM duroquinone 3 hours, duroquinone alone 51.0±3.4%
# Protocol: as §1
# as §2, with “below. […]” for “below.”
# (§4) Neuronal damage was assessed using ImageJ software running on a PC. […] Light transmission images were captured prior to the addition of drugs, and PI fluorescence images recorded at the end of the 24-hour recovery period. The area of the CA1 region was determined from the transmission image. […]
# [4] = test system: dopamine turnover in mice striatum; assay: Dopamine, DOPAC and HVA content / dopamine turnover in mice striatum (HPLC-ECD); assay type: in vivo, C57BL/6 mice; conditions: oral; for dopamine turnover: monotherapy vs combination, mice striatum (FIG. 3)
# Protocol: C57BL/6 mice (SLC, Shizuoka, Japan) were used for the experiment. […] The two drugs were orally administered by gavage 1 hour before sampling. At the time the mice were sacrificed, both striata were rapidly dissected and were frozen by liquid nitrogen. The samples were subsequently sonicated in 0.5 ml of chilled 0.5 M perchloric acid containing 0.1 M EDTA, and centrifuged at 13000 rpm for 15 min at 4° C. Then monoamine levels were measured by HPLC with electrochemical detection. Supernatant aliquots of 20 μl were separated over an Eicompak SC5-ODS column (3×150 mm; Eicom, Japan) with mobile phase of 17% methanol, 83% 0.1M acetate/citrate buffer (pH 3.5) containing 190 mg/ml sodium 1-octanesulfonate and 50 mg/ml EDTA, and a flow rate of 0.65 ml/min. Peaks of dopamine, DOPAC, HVA, 5-HT, and 5-HIAA were quantified by area integration with PowerChrom (eDAQ, Australia), and concentrations were expressed as nanograms per milligram of striatal tissue.
# [5] = test system: hypoxia-induced neurodegeneration in CA1 region of organotypic hippocampal slice cultures; assay: Hypoxia-induced neurodegeneration in organotypic hippocampal slice cultures; assay type: cell-based, Wistar rat
# Protocol: as §1, §2
# (3) Hypoxia: Hypoxia was performed by exposing cultures to oxygen-deprivation as described previously. Pringle et al, Brain Research, 755:36-46 (1997); Pringle et al, Stroke, 27:2124-2130 (1996). Hypoxia was induced by transferring cultures to SFM (+PI) which had been saturated with 95% N2/5% CO2. Culture plates (without lids) were then sealed into an airtight chamber in which the atmosphere was saturated with 95% N2/5% CO2 by continuously blowing through gas at 10 L/min for ten minutes before being sealed and placed in the incubator for 170 mins (total time of hypoxia was therefore 180 mins). At the end of the period of hypoxia, cultures were returned to normoxic SFM (+PI) and placed back in the incubator for 21 hours. The freeradical scavenger MnTBAP (100 μM) was used as a positive neuroprotective control.
# as §3
# [6] = test system: NMDA-induced neurotoxicity in CA1 region of organotypic hippocampal slice cultures; assay: NMDA-induced neurotoxicity in organotypic hippocampal slice cultures; assay type: cell-based, Wistar rat; conditions: 10 μM NMDA 3 hours, NMDA alone 35.1±[…]
# Protocol: as §1, §2
# At the end of this period, cultures were returned to fresh SFM for 21 hours prior to determination of neuronal death by PI imaging.
# as §4
# [7] = test system: OGD-induced neurotoxicity in CA1 region of organotypic hippocampal slice cultures; assay: Oxygen-glucose deprivation (OGD) in organotypic hippocampal slice cultures (PI fluorescence in CA1); assay type: cell-based, Wistar rat
# Protocol: as §1, §2
# (2) Oxygen-Glucose Deprivation (OGD): Experimental ischaemia was performed by exposing cultures to oxygen-glucose deprivation (OGD) as described previously. Pringle et al, Brain Research, 755:36-46 (1997); Pringle et al, Stroke, 27:2124-2130 (1996); Morrison et al, Br. J. Pharmacol., 137:1255-1268 (2002). OGD was induced by transferring cultures to glucose-free SFM (+PI) which had been saturated with 95% N2/5% CO2. Culture plates (without lids) were then sealed into an airtight chamber in which the atmosphere was saturated with 95% N2/5% CO2 by continuously blowing through gas at 10 L/min for ten minutes before being sealed and placed in the incubator for 50 mins (total time of OGD was therefore 60 mins). At the end of the period of OGD cultures were returned to normoxic SFM containing PI and placed back in the incubator for 23 hours.
# as §3
# [8] = C57BL/6, mouse, in vivo, po, 1 h
# [9] = 1 hour before sampling (FIG. 2)
smiles,measurement,setting,value
"N#Cc1ccccc1-c1cc(-c2ccccn2)cn(-c2ccccc2)c1=O [2-(2-oxo-1-phenyl-5-pyridin-2-yl-1,2-dihydropyridin-3-yl)benzonitrile]",concentration from which the effect reached a plateau,[1],≥ 0.3 mM
same,neuronal survival (LDH release),[1]; drugs 24 hours before and during exposure (FIG. 5),showed effects
same,damage in CA1 (PI fluorescence),"[2]; 0.1 μM, 30 μM AMPA 3 hours, AMPA alone 65.1±1.7%",63.9±2.6%
same,damage in CA1 (PI fluorescence),"[2]; 0.3 μM, 30 μM AMPA 3 hours, AMPA alone 65.1±1.7%",50.4±2.5%
same,"area of PI fluorescence, % of CA1","[2]; 0.5 μM, 30 μM AMPA, AMPA alone 62.4±[…]",33.6±4.0%
same,damage in CA1 (PI fluorescence),"[2]; 3 μM, 30 μM AMPA 3 hours, AMPA alone 65.1±1.7%",0.1±0.1%
same,EC50,"[2]; Rattus norvegicus, 3 h, read-out: EC50 in this model of AMPA toxicity",500 nM
same,damage in CA1 (PI fluorescence),[3]; 0.5 μM,69.1±4.0%
same,content of HVA in striatum,"[4]; 1 mg/kg, 1 hour before sampling (FIG. 1)",elevated
same,dopamine turnover,[4],modulated dopamine turnover but neither reached significance
same,damage in CA1 (PI fluorescence),"[5]; 0.1 μM, 3 hours hypoxia, first set, hypoxia alone 45.1±3.5%",24.8±6.3%
same,damage in CA1 (PI fluorescence),"[5]; 0.1 μM, hypoxia, second set, hypoxia alone 36.4±[…]",36.7±4.2%
same,damage in CA1 (PI fluorescence),"[5]; 0.5 μM, hypoxia, repeated experiment, hypoxia alone 36.9+[…]",27.1±3.5%
same,damage in CA1 (PI fluorescence),"[5]; 5 μM, 3 hours hypoxia, first set, hypoxia alone 45.1±3.5%",3.9±1.8%
same,damage in CA1 (PI fluorescence),[6]; 0.5 μM,29.1±2.9%
same,damage in CA1 (PI fluorescence),"[7]; 0.1 μM, 60 minutes OGD, initial set, OGD alone 50.6±5.2%",64.4±3.6%
same,damage in CA1 (PI fluorescence),"[7]; 0.5 μM, OGD second series, OGD alone 44.8±[…]",55.3±3.1%
same,effect on OGD-induced PI fluorescence,"[7]; any other concentration assessed (up to 3 μM), 60 minutes OGD",no significant effect
same,EC50 in OGD model,"[7]; six-point concentration-response curve, 60 minutes OGD",could not be established
"CC1=NN=C(c2ccc(N)cc2)c2cc3c(cc2C1)OCO3 [GYK152466, reference compound]",damage in CA1 (PI fluorescence),"[2]; 30 μM test substance, 30 μM AMPA 3 hours, AMPA alone 65.1±1.7%",14.3±2.3%
same,damage in CA1 (PI fluorescence),"[2]; 30 μM, pre-incubation time experiments, AMPA alone 46.5±5.0%",21.7±2.7%
same,damage in CA1 (PI fluorescence),"[7]; 30 μM, 60 minutes OGD, initial set, OGD alone 50.6±5.2%",36.9±3.6%
"C[C@]12N[C@H](Cc3ccccc31)c1ccccc12 [MK-801, reference compound]",damage in CA1 (PI fluorescence),[6]; 10 μM,0.0±0.0%
"O=C(O)c1ccc(/C2=C3\C=CC(=N3)/C(c3ccc(C(=O)O)cc3)=c3/cc/c4[n]3[Mn]([Cl])[n]3c2ccc3/C(c2ccc(C(=O)O)cc2)=C2/C=CC(=N2)\C=4c2ccc(C(=O)O)cc2)cc1 [MnTBAP, reference compound]",damage in CA1 (PI fluorescence),[3]; 100 μM,0.1±0.0%
same,damage in CA1 (PI fluorescence),"[5]; 100 μM, 3 hours hypoxia, first set, hypoxia alone 45.1±3.5%",0.2±0.1%
same,damage in CA1 (PI fluorescence),"[5]; 100 μM, hypoxia, repeated experiment, hypoxia alone 36.9+[…]",0.8±0.4%
same,damage in CA1 (PI fluorescence),"[5]; 100 μM, hypoxia, second set, hypoxia alone 36.4±[…]",0.0±0.0%
same,damage in CA1 (PI fluorescence),"[7]; 100 μM, 60 minutes OGD, initial set, OGD alone 50.6±5.2%",0.1±0.0%
same,damage in CA1 (PI fluorescence),"[7]; 100 μM, OGD second series, OGD alone 44.8±[…]",0.6±0.2%
"COc1cc2c(cc1OC)C(=O)C(CC1CCN(Cc3ccccc3)CC1)C2 (stereo not shown) [donepezil, 1-benzyl-4-((5,6-dimethoxy-1-indanon)-2-yl)methylpiperidine]",dopamine turnover,[4],modulated dopamine turnover but neither reached significance
same,DPAC/DA,[4]; [9],increased significantly
same,HVA/DA,[4]; [9],increased significantly
same,content of dopamine in striatum,[4]; [9],reduced the content of dopamine significantly
same,dose at which peripheral side effect was shown,[8],≥ 7.5 mg/kg
